The source of these data is ChEMBL document CHEMBL4699634, “Series of Novel and Highly Potent Cyclic Peptide PCSK9 Inhibitors Derived from an mRNA Display Screen and Optimized via Structure-Based Design” (J Med Chem, 2020).

In general, Ki refers to the dissociation constant of the complex between target and ligand, obtained from inhibition or displacement.

Molecules are shown by their SMILES. Numbered stars: 1 amine (or outer) side, 2 acyl side, 3 side chain; on linkers, the order of the positions; unused ones are H or OH. Bridge positions count the residues as written; N and C are the ends. Square brackets hold non-standard residues; d marks the D form. Peptide text beside a SMILES is read from it. ξ: configuration not given here. Trp(5-F) = N[C@@H](Cc1c[nH]c2ccc(F)cc12)C(=O)O; mXylylene(5-F) = Fc1cc(C[*:1])cc(C[*:2])c1; X1 = O=C(CCSCc1cccc(CSCCN[*:1])c1)[*:2]; mXylylene = c1cc(C[*:1])cc(C[*:2])c1; NMeD = CN[C@@H](CC(=O)O)C(=O)O; ξhPhe = NC(CCc1ccccc1)C(=O)O; αMeP = C[C@@]1(C(=O)O)CCCN1; NMeC = CN[C@@H](CS)C(=O)O; Mpa = O=C(O)CCS; Sar = CNCC(=O)O

Sequence of PCSK9/LDLR (Q8NBP7 31-152 limits assumed): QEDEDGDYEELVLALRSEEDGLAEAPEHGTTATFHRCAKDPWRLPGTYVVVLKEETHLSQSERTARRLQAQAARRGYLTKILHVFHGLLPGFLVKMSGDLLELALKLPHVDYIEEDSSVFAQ
Sequence of PCSK9/LDLR (Q8NBP7 153-692 limits assumed): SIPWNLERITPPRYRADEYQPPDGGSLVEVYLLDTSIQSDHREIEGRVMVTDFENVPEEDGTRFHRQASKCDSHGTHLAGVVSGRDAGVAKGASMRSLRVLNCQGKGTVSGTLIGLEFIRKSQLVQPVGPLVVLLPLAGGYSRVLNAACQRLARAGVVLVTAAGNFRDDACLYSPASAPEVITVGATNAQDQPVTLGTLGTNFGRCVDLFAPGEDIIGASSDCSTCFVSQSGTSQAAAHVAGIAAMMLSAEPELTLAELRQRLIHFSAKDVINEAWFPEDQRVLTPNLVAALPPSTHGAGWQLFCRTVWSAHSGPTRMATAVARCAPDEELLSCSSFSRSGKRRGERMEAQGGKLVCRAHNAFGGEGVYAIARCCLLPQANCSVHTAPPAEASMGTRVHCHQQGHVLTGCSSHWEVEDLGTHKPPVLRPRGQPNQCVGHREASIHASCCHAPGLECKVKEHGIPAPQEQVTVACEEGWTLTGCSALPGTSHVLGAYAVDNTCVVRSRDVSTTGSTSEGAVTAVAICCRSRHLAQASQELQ
Sequence of PCSK9/LDLR (P01130 22-860 partner limits assumed): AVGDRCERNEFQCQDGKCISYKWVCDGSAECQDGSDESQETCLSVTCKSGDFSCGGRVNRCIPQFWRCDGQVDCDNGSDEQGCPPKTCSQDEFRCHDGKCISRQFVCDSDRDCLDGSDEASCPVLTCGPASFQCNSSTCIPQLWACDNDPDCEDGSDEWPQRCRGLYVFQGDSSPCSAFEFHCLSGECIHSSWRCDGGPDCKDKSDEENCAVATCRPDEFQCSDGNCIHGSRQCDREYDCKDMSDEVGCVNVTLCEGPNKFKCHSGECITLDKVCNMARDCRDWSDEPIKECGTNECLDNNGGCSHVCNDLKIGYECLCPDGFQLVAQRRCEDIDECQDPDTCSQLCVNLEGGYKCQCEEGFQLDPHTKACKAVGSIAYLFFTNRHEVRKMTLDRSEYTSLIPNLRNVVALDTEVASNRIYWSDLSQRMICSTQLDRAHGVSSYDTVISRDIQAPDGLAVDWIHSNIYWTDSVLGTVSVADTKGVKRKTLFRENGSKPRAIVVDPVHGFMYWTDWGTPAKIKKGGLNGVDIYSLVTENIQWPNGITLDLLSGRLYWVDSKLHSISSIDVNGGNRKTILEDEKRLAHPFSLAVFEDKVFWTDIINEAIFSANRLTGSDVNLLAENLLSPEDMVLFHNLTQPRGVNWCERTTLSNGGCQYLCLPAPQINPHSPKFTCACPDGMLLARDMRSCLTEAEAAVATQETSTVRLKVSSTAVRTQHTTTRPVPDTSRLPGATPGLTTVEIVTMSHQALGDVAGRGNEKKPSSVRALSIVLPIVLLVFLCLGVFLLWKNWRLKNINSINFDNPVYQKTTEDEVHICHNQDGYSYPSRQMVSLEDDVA

For one test, the target named is Proprotein convertase subtilisin/kexin type 9 (Homo sapiens, UniProt Q8NBP7). Put plainly: Inhibition of AlexaFluor647-tagged cyclic peptide binding to avi-tagged-biotinylated human PCSK9 measured after 2 hrs by Lance Streptavidin Europium based FRET assay.
Sequence of Proprotein convertase subtilisin/kexin type 9 (Q8NBP7 31-152 limits assumed): as the sequence (Q8NBP7 31-152 limits assumed) above
Sequence of Proprotein convertase subtilisin/kexin type 9 (Q8NBP7 153-692 limits assumed): as the sequence (Q8NBP7 153-692 limits assumed) above
In the case of `COc1ccc(C[C@@H]2NC(=O)[C@H]([C@@H](C)O)NC(=O)[C@@H]3CCCCC(=O)NCc4ccc(cc4)C[C@H](NC(=O)[C@@H](C)NC(=O)[C@H](C)NC(=O)CCSCc4cccc(c4)CSCCNC(=O)[C@]4(C)CCCN4C2=O)C(=O)N[C@@H](Cc2c[nH]c4ccc(F)cc24)C(=O)N3)cc1`, the Ki was 175 nM.
On the same count and under the same terms, the same measure for `COc1ccc(C[C@@H]2NC(=O)[C@H]([C@@H](C)O)NC(=O)[C@@H]3CC(=O)NCc4cccc(c4)C[C@H](NC(=O)[C@@H](C)NC(=O)[C@H](C)NC(=O)CCSCc4cccc(c4)CSCCNC(=O)[C@]4(C)CCCN4C2=O)C(=O)N[C@@H](Cc2c[nH]c4ccc(F)cc24)C(=O)N3)cc1`: 285 nM; for `CCC[C@H]1NC(=O)[C@H](CCCCN)NC(=O)CCSCc2cccc(c2)CSCCNC(=O)[C@]2(C)CCCN2C(=O)[C@H](Cc2ccc(O)cc2)NC(=O)[C@H](Cc2cnc[nH]2)NC(=O)[C@H](CC(=O)O)NC(=O)[C@H](Cc2c[nH]c3ccc(F)cc23)NC(=O)[C@H](Cc2c[nH]c3ccc(F)cc23)NC1=O`: 2.7 nM.
`COc1ccc(C[C@@H]2NC(=O)[C@H]([C@@H](C)OC)NC(=O)[C@@H]3CCC(=O)NCc4cccc(c4)C[C@H](NC(=O)[C@@H](C)NC(=O)[C@H](C)NC(=O)CCSCc4cccc(c4)CSCCNC(=O)[C@]4(C)CCCN4C2=O)C(=O)NC(Cc2ccnc4ccc(F)cc24)C(=O)N3C)cc1` (stereo partly specified) showed an inhibitory constant (Ki) of 2.8 nM.
As to `CC(C)(C)[C@H]1NC(=O)[C@H](CCCCN)NC(=O)CCSCc2cccc(c2)CSCCNC(=O)[C@]2(C)CCCN2C(=O)[C@H](Cc2ccc(O)cc2)NC(=O)[C@H](Cc2cnc[nH]2)NC(=O)[C@H](CC(=O)O)NC(=O)[C@H](Cc2c[nH]c3ccc(F)cc23)NC(=O)[C@H](Cc2c[nH]c3ccc(F)cc23)NC1=O`, the inhibitory constant (Ki) was 4.2 nM.
With `COc1ccc(C[C@@H]2NC(=O)[C@H]([C@@H](C)O)NC(=O)[C@@H]3CCCCC(=O)NCc4cccc(c4)C[C@H](NC(=O)[C@@H](C)NC(=O)[C@H](C)NC(=O)CCSCc4cccc(c4)CSCCNC(=O)[C@]4(C)CCCN4C2=O)C(=O)N[C@@H](Cc2c[nH]c4ccc(F)cc24)C(=O)N3)cc1`, the Ki came out at 4 nM.
On to `C[C@@]12CCCN1C(=O)[C@H](Cc1ccc(O)cc1)NC(=O)[C@H](Cc1cnc[nH]1)NC(=O)[C@H](CC(=O)O)NC(=O)[C@H](Cc1c[nH]c3ccc(F)cc13)NC(=O)[C@H](Cc1c[nH]c3ccc(F)cc13)NC(=O)[C@@H](C1CCCC1)NC(=O)[C@H](CCCCN)NC(=O)CCSCc1cccc(c1)CSCCNC2=O`, for which affinity was put at a Ki of 23.1 nM.
The molecule `COc1ccc(C[C@@H]2NC(=O)[C@H]([C@@H](C)O)NC(=O)[C@@H]3CCCC(=O)NCc4cccc(c4)C[C@H](NC(=O)[C@@H](C)NC(=O)[C@H](C)NC(=O)CCSCc4cccc(c4)CSCCNC(=O)[C@]4(C)CCCN4C2=O)C(=O)N[C@@H](Cc2c[nH]c4ccc(F)cc24)C(=O)N3)cc1` gave a Ki of 44.2 nM.
The same measure, in the same setting: the value for `C[C@H]1NC(=O)[C@H](CCCCN)NC(=O)CCSCc2cc(F)cc(c2)CSC[C@@H](C(N)=O)NC(=O)[C@]2(C)CCCN2C(=O)[C@H](Cc2ccc(O)cc2)NC(=O)[C@H]([C@@H](C)O)NC(=O)[C@@H]2CCCN2C(=O)[C@H](Cc2c[nH]c3ccc(F)cc23)NC(=O)[C@H](Cc2c[nH]c3ccc(F)cc23)NC1=O` ([Mpa]K[dA][Trp(5-F)][Trp(5-F)]PTY[αMeP]C-NH2; linker 1-10 via mXylylene(5-F)) was 11 nM; that for `COc1ccc(C[C@@H]2NC(=O)[C@H](Cc3cnc[nH]3)NC(=O)[C@H](CC(=O)O)NC(=O)[C@H](Cc3c[nH]c4ccc(F)cc34)NC(=O)[C@H](Cc3c[nH]c4ccc(F)cc34)NC(=O)[C@@H](C)NC(=O)[C@H](CCCCN)NC(=O)CCSCc3cccc(c3)CSCCNC(=O)[C@]3(C)CCCN3C2=O)cc1` was 3.9 nM.

Another test has as its target PCSK9/LDLR (Homo sapiens, UniProt Q8NBP7). The test is described as follows: Inhibition of avi-tagged-biotinylated human PCSK9 interaction with His-tagged human LDLR EGFa domain by LANCE Ulight Streptavidin based TR-FRET assay. It counts as protein assay. For orientation: TR-FRET usually uses a lanthanide donor and a delayed reading to cut background.
In turn, `CCC[C@H]1NC(=O)[C@H](CCCCN)NC(=O)CCSCc2cccc(c2)CSCCNC(=O)[C@]2(C)CCCN2C(=O)[C@H](Cc2ccc(O)cc2)NC(=O)[C@H](Cc2cnc[nH]2)NC(=O)[C@H](CC(=O)O)NC(=O)[C@H](Cc2c[nH]c3ccc(F)cc23)NC(=O)[C@H](Cc2c[nH]c3ccc(F)cc23)NC1=O` returned a Ki of 43.5 nM.
For `C[C@H](O)[C@H]1NC(=O)[C@H](CCCCN)NC(=O)CCSCc2cccc(c2)CSCCNC(=O)[C@]2(C)CCCN2C(=O)[C@H](Cc2ccc(O)cc2)NC(=O)[C@H](Cc2cnc[nH]2)NC(=O)[C@H](CC(=O)O)NC(=O)[C@H](Cc2c[nH]c3ccc(F)cc23)NC(=O)[C@H](Cc2c[nH]c3ccc(F)cc23)NC1=O`, the affinity, expressed as Ki, was 26.9 nM.
Take `NCCCC[C@@H]1NC(=O)CCSCc2cccc(c2)CSC[C@@H](C(N)=O)NC(=O)[C@@H]2CCCN2C(=O)[C@H](Cc2ccc(O)cc2)NC(=O)[C@H](Cc2cnc[nH]2)NC(=O)[C@H](CC(=O)O)NC(=O)[C@H](Cc2c[nH]c3ccc(F)cc23)NC(=O)[C@@H](Cc2c[nH]c3ccccc23)NC(=O)CNC1=O`: the Ki was over 48000 nM.
On the same count and under the same terms, the value for `CN1CC(=O)N[C@H](C(N)=O)CSCc2cccc(c2)CSCCC(=O)N[C@@H](CCCCN)C(=O)NCC(=O)N[C@@H](Cc2c[nH]c3ccc(F)cc23)C(=O)N[C@@H](Cc2c[nH]c3ccc(F)cc23)C(=O)N[C@@H](CC(=O)O)C(=O)N[C@@H](Cc2cnc[nH]2)C(=O)N[C@@H](Cc2ccc(O)cc2)C1=O` ([Mpa]KG[Trp(5-F)][Trp(5-F)]DHY[Sar]C-NH2; linker 1-10 via mXylylene) was 10700 nM.
`NCCCC[C@@H]1NC(=O)CCSCc2cccc(c2)CSC[C@@H](C(N)=O)NC(=O)[C@@H]2CCCN2C(=O)[C@H](Cc2ccc(O)cc2)NC(=O)[C@H](Cc2cnc[nH]2)NC(=O)[C@H](CC(=O)O)NC(=O)[C@H](Cc2c[nH]c3ccc(F)cc23)NC(=O)C(CCc2ccccc2)NC(=O)CNC1=O` (stereo partly specified) ([Mpa]KG[ξhPhe][Trp(5-F)]DHYPC-NH2; linker 1-10 via mXylylene) showed a Ki of 2210 nM.
The molecule `CC(=O)N[C@H]1CSCc2cccc(c2)CSC[C@@H](C(N)=O)NC(=O)[C@@H]2CCCN2C(=O)[C@H](Cc2ccc(O)cc2)NC(=O)[C@H](Cc2cnc[nH]2)NC(=O)[C@H](CC(=O)O)NC(=O)[C@H](Cc2c[nH]c3ccccc23)NC(=O)[C@H](Cc2c[nH]c3ccc(F)cc23)NC(=O)CNC(=O)[C@H](CCCCN)NC1=O` (Ac-CKG[Trp(5-F)]WDHYPC-NH2; linker 1-10 via mXylylene) registered an inhibition constant (Ki) of 1070 nM.
The molecule `C[C@@H]1NC(=O)[C@H](Cc2cnc[nH]2)NC(=O)[C@H](CC(=O)O)NC(=O)[C@H](Cc2c[nH]c3ccc(F)cc23)NC(=O)[C@H](Cc2c[nH]c3ccc(F)cc23)NC(=O)CNC(=O)[C@H](CCCCN)NC(=O)CCSCc2cccc(c2)CSC[C@@H](C(N)=O)NC(=O)[C@@H]2CCCN2C1=O` ([Mpa]KG[Trp(5-F)][Trp(5-F)]DHAPC-NH2; linker 1-10 via mXylylene) showed a Ki of over 48000 nM.
`C[C@@H]1NC(=O)CNC(=O)[C@H](CCCCN)NC(=O)CCSCc2cccc(c2)CSC[C@@H](C(N)=O)NC(=O)[C@@H]2CCCN2C(=O)[C@H](Cc2ccc(O)cc2)NC(=O)[C@H](Cc2cnc[nH]2)NC(=O)[C@H](CC(=O)O)NC(=O)[C@H](Cc2c[nH]c3ccc(F)cc23)NC1=O` ([Mpa]KGA[Trp(5-F)]DHYPC-NH2; linker 1-10 via mXylylene): the Ki turned out to be 656 nM.
In turn, `NCCCC[C@@H]1NC(=O)CCSCc2cccc(c2)CSCCNC(=O)[C@@H]2CCCN2C(=O)[C@H](Cc2ccc(O)cc2)NC(=O)[C@H](Cc2c[nH]cn2)NC(=O)[C@H](CC(=O)O)NC(=O)[C@H](Cc2c[nH]c3ccc(F)cc23)NC(=O)[C@H](Cc2c[nH]c3ccc(F)cc23)NC(=O)CNC1=O` (cyclo(DHYP[X1]KG[Trp(5-F)][Trp(5-F)])) came in with a Ki of 252 nM.
Take `NCCCC[C@@H]1NC(=O)CCSCc2cccc(c2)CSC[C@@H](C(N)=O)NC(=O)[C@@H]2CCCN2C(=O)[C@H](Cc2ccc(O)cc2)NC(=O)[C@H](Cc2cnc[nH]2)NC(=O)[C@@H](CC(=O)O)NC(=O)[C@H](Cc2c[nH]c3ccc(F)cc23)NC(=O)[C@H](Cc2c[nH]c3ccc(F)cc23)NC(=O)CNC1=O`: the Ki is over 48000 nM.
In turn, `CC(=O)N[C@H]1CSCc2cccc(c2)CSC[C@@H](C(N)=O)NC(=O)[C@@H]2CCCN2C(=O)[C@H](Cc2ccc(O)cc2)NC(=O)[C@H](Cc2cnc[nH]2)NC(=O)[C@H](CC(=O)O)NC(=O)[C@H](Cc2c[nH]c3ccc(F)cc23)NC(=O)[C@H](Cc2c[nH]c3ccc(F)cc23)NC(=O)CNC(=O)[C@H](CCCCN)NC1=O` (Ac-CKG[Trp(5-F)][Trp(5-F)]DHYPC-NH2; linker 1-10 via mXylylene) registered a Ki of 47.1 nM.
`CN1C(=O)[C@H](Cc2c[nH]c3ccc(F)cc23)NC(=O)[C@H](Cc2c[nH]c3ccc(F)cc23)NC(=O)CNC(=O)[C@H](CCCCN)NC(=O)CCSCc2cccc(c2)CSC[C@@H](C(N)=O)NC(=O)[C@@H]2CCCN2C(=O)[C@H](Cc2ccc(O)cc2)NC(=O)[C@H](Cc2cnc[nH]2)NC(=O)[C@@H]1CC(=O)O` ([Mpa]KG[Trp(5-F)][Trp(5-F)][NMeD]HYPC-NH2; linker 1-10 via mXylylene) came in with a Ki of 12900 nM.
Still for that read-out and setting: the value for `CN1C(=O)[C@@H]2CCCN2C(=O)[C@H](Cc2ccc(O)cc2)NC(=O)[C@H](Cc2cnc[nH]2)NC(=O)[C@H](CC(=O)O)NC(=O)[C@H](Cc2c[nH]c3ccc(F)cc23)NC(=O)[C@H](Cc2c[nH]c3ccc(F)cc23)NC(=O)CNC(=O)[C@H](CCCCN)NC(=O)CCSCc2cccc(c2)CSC[C@H]1C(N)=O` ([Mpa]KG[Trp(5-F)][Trp(5-F)]DHYP[NMeC]-NH2; linker 1-10 via mXylylene) was over 48000 nM; that for `NCCCC[C@@H]1NC(=O)CCSCc2cccc(c2)CSC[C@H](C(N)=O)NC(=O)[C@@H]2CCCN2C(=O)[C@H](Cc2ccc(O)cc2)NC(=O)[C@H](Cc2cnc[nH]2)NC(=O)[C@H](CC(=O)O)NC(=O)[C@H](Cc2c[nH]c3ccc(F)cc23)NC(=O)[C@H](Cc2c[nH]c3ccc(F)cc23)NC(=O)CNC1=O` was 2010 nM; that for `C[C@@H]1NC(=O)[C@H](CC(=O)O)NC(=O)[C@H](Cc2c[nH]c3ccc(F)cc23)NC(=O)[C@H](Cc2c[nH]c3ccc(F)cc23)NC(=O)CNC(=O)[C@H](CCCCN)NC(=O)CCSCc2cccc(c2)CSC[C@@H](C(N)=O)NC(=O)[C@@H]2CCCN2C(=O)[C@H](Cc2ccc(O)cc2)NC1=O` ([Mpa]KG[Trp(5-F)][Trp(5-F)]DAYPC-NH2; linker 1-10 via mXylylene) was 525 nM.
Molecule `C[C@@H]1NC(=O)[C@H](Cc2c[nH]c3ccc(F)cc23)NC(=O)[C@H](Cc2c[nH]c3ccc(F)cc23)NC(=O)CNC(=O)[C@H](CCCCN)NC(=O)CCSCc2cccc(c2)CSC[C@@H](C(N)=O)NC(=O)[C@@H]2CCCN2C(=O)[C@H](Cc2ccc(O)cc2)NC(=O)[C@H](Cc2cnc[nH]2)NC1=O` ([Mpa]KG[Trp(5-F)][Trp(5-F)]AHYPC-NH2; linker 1-10 via mXylylene) yielded a Ki of 427 nM.
